Data taken from ChEMBL document CHEMBL5584343, “Cerastecin Inhibition of the Lipooligosaccharide Transporter MsbA to Combat Acinetobacter baumannii: From Screening Impurity to In Vivo Efficacy” (J Med Chem, 2024).
Values after ≈ are worked out from the molar mass of the structure shown. Active and inactive are the calls of the source. The rule behind the calls is not given here.

Legend:
[1] = Inhibition of wildtype Acinetobacter baumannii MsbA preincubated for 30 mins followed by ATP addition and measured after 1 hrs by Transcreener ADP2 F1 assay
[2] = Cytotoxicity against GFP fused human MT4 cells cultured under serum free condition for 24 hrs by CellTiter-Glo assay; assay type: toxicity, cell-based; details: GFP fused MT4 cells
Acinetobacter baumannii [3] = assay: Antibacterial activity against Acinetobacter baumannii ATCC19606 assessed as bacterial growth inhibition incubated for 18 to 20 hrs by microbroth dilution method; assay type: functional; details: time 18-20 hrs
Acinetobacter baumannii [4] = assay: Antibacterial activity against Acinetobacter baumannii ATCC19606 incubated for 18 to 20 hrs in presence of 10% human serum by microbroth dilution method; assay type: functional; details: time 18-20 hrs
Acinetobacter baumannii [5] = assay: Antibacterial activity against Acinetobacter baumannii ATCC19606 incubated for 18 to 20 hrs in presence of 1% of human serum by microbroth dilution method; assay type: functional; details: time 18-20 hrs
Acinetobacter baumannii [6] = assay: Selectivity ratio of MIC95 for antibacterial activity against Acinetobacter baumannii ATCC19606 in the presence of 10% human serum to MIC95 for antibacterial activity against Acinetobacter baumannii ATCC19606; assay type: functional
Acinetobacter baumannii [7] = assay: Antibacterial activity against Acinetobacter baumannii CLB21655 incubated for 18 to 20 hrs in presence of 10% mouse serum by microbroth dilution method; assay type: functional; details: time 18-20 hrs
Acinetobacter baumannii [8] = assay: Antibacterial activity against Acinetobacter baumannii CLB21655 incubated for 18 to 20 hrs in presence of 50% human serum by microbroth dilution method; assay type: functional; details: time 18-20 hrs
Acinetobacter baumannii [9] = assay: Antibacterial activity against Acinetobacter baumannii CLB21655 incubated for 18 to 20 hrs in presence of 50% mouse serum by microbroth dilution method; assay type: functional; details: time 18-20 hrs
Acinetobacter baumannii [10] = assay: Antibacterial activity against Acinetobacter baumannii CLB21655 assessed as bacterial growth inhibition incubated for 18 to 20 hrs by microbroth dilution method; assay type: functional; details: time 18-20 hrs
Acinetobacter baumannii [11] = assay: Selectivity ratio of MIC95 for antibacterial activity against Acinetobacter baumannii ATCC19606 in the presence of 1% human serum to MIC95 for antibacterial activity against Acinetobacter baumannii ATCC19606; assay type: functional
Acinetobacter baumannii [12] = assay: Antibacterial activity against wild type Acinetobacter baumannii; assay type: functional
[13] = Lipophilicity, logD of compound at pH 7 by HPLC analysis; assay type: physicochemical; details: buffer
[14] = AUC (0 to infinity) in male C57BL/6 mouse at 300 mg/kg, sc administered 3 times a day with 3 hrs interval and measured after 24 hrs by LC-MS/MS analysis; assay type: ADME, organism-based; details: male, C57BL/6, mouse, in vivo
[15] = Cmax in male C57BL/6 mouse at 300 mg/kg, sc administered once in a day and measured after 24 hrs by LC-MS/MS analysis; assay type: ADME, organism-based; details: in vivo
[16] = AUC (0 to infinity) in male C57BL/6 mouse at 300 mg/kg, sc administered once in a day and measured after 24 hrs by LC-MS/MS analysis; assay type: ADME, organism-based; details: male, C57BL/6, mouse, in vivo
[17] = Cmax in male C57BL/6 mouse at 300 mg/kg, sc administered 3 times a day with 3 hrs interval and measured after 24 hrs by LC-MS/MS analysis; assay type: ADME, organism-based; details: in vivo

Row | SMILES | EC50 [1] [nM] | EC50 at 24 h [2] [nM] | MIC95 (Acinetobacter baumannii [3]) [µM] | MIC95 (Acinetobacter baumannii [5]) [µM] | Selectivity ratio (Acinetobacter baumannii [11]) | also measured
1 | O=C(O)c1cc(CN[C@H]2C[C@@H](CNc3ccc(NS(=O)(=O)c4cnn(-c5ccc(Cl)cc5)c4)c(C(=O)O)c3)C2)ccc1NS(=O)(=O)c1cnn(-c2ccc(Cl)cc2)c1 | 2380 | 32700 | 0.024 (≈ 0.0208 µg/mL) | 0.098 | – | Activity (Acinetobacter baumannii [4]): inactive
2 | O=C(O)c1cc(CNC2CN(Cc3ccc(NS(=O)(=O)c4cnn(-c5ccc(Cl)cc5)c4)c(C(=O)O)c3)C2)ccc1NS(=O)(=O)c1cnn(-c2ccc(Cl)cc2)c1 | 887 | > 42000 | 0.391 (≈ 0.333 µg/mL) | – | – | Selectivity ratio (Acinetobacter baumannii [6]): 8; MIC95 (Acinetobacter baumannii [4]): 3.12 µM
3 | O=C(O)c1cc(CN2CC(Oc3ccc(NS(=O)(=O)c4cnn(-c5ccc(F)cc5)c4)c(C(=O)O)c3)C2)ccc1NS(=O)(=O)CCCCCc1ccc(Cl)cc1 | – | – | – | – | – | MIC (Acinetobacter baumannii [7]): 3.12 µM; MIC (Acinetobacter baumannii [8]): 25 µM; MIC (Acinetobacter baumannii [9]): 25 µM; MIC (Acinetobacter baumannii [10]): 0.024 µM (≈ 0.0198 µg/mL)
4 | Cc1c(S(=O)(=O)Nc2ccc(NC(=O)CCCOc3ccc(NS(=O)(=O)c4cnn(-c5ccc(Cl)cc5)c4C)c(C(=O)O)c3)cc2C(=O)O)cnn1-c1ccc(Cl)cc1 | < 10 | 900 | 0.098 (≈ 0.0865 µg/mL) | 1.56 | 16 | –
5 | O=C(O)c1cc(CN2CC(Oc3ccc(NS(=O)(=O)c4ccc(-c5ccc(F)cc5)s4)c(C(=O)O)c3)C2)ccc1NS(=O)(=O)CCc1ccc(Cl)cc1 | 5.7 | 38700 | 0.024 (≈ 0.0192 µg/mL) | – | – | Selectivity ratio (Acinetobacter baumannii [6]): 130; MIC95 (Acinetobacter baumannii [4]): 3.12 µM
6 | O=C(O)c1cc(CN2CC(Oc3ccc(NS(=O)(=O)c4ccc(-c5ccc(F)cc5)cc4)c(C(=O)O)c3)C2)ccc1NS(=O)(=O)c1cnn(-c2ccc(F)cc2)c1 | 17 | > 42000 | 0.049 (≈ 0.04 µg/mL) | – | – | Selectivity ratio (Acinetobacter baumannii [6]): 64; MIC95 (Acinetobacter baumannii [4]): 3.12 µM
7 | O=C(Nc1sc2c(c1C(=O)O)CCCC2)c1ccc(Cl)cc1 | – | – | – | – | – | MIC (Acinetobacter baumannii [12]): 60 µM (≈ 20.1 µg/mL)
8 | O=C(O)c1cc(CN2CC(COc3ccc(NS(=O)(=O)c4cnn(-c5ccc(Cl)cc5)c4)c(C(=O)O)c3)C2)ccc1NS(=O)(=O)c1cnn(-c2ccc(Cl)cc2)c1 | 581 | > 42000 | 0.196 (≈ 0.167 µg/mL) | – | – | Selectivity ratio (Acinetobacter baumannii [6]): 32; MIC95 (Acinetobacter baumannii [4]): 6.25 µM
9 | CCCCc1ccc(S(=O)(=O)Nc2ccc(OCCCCOc3ccc(NS(=O)(=O)c4ccc(CCCC)cc4)c(C(=O)O)c3)cc2C(=O)O)cc1 | 5.4 | 9800 | 0.049 (≈ 0.0369 µg/mL) | 12.5 | 255 | –
10 | O=C(O)c1cc(CN2CC(Oc3ccc(NS(=O)(=O)c4ccc(-c5ccc(F)cc5)s4)c(C(=O)O)c3)C2)ccc1NS(=O)(=O)c1cnn(-c2ccc(Cl)cc2)c1 | < 10 | 37000 | 0.049 (≈ 0.0411 µg/mL) | – | – | Selectivity ratio (Acinetobacter baumannii [6]): 64; MIC95 (Acinetobacter baumannii [4]): 3.12 µM
11 | O=C(CCCOc1ccc(NS(=O)(=O)c2ccc(-c3ccc(Cl)cc3)s2)c(C(=O)O)c1)Nc1ccc(NS(=O)(=O)c2ccc(-c3ccc(Cl)cc3)s2)c(C(=O)O)c1 | < 10 | 3400 | 0.012 (≈ 0.0106 µg/mL) | 2.21 | 184 | –
12 | C[C@@H]1[C@H](Oc2ccc(NS(=O)(=O)c3cnn(-c4ccc(Cl)cc4)c3)c(C(=O)O)c2)CN1Cc1ccc(NS(=O)(=O)c2cnn(-c3ccc(Cl)cc3)c2)c(C(=O)O)c1 (racemic) | 82 | > 42000 | 0.049 (≈ 0.0418 µg/mL) | – | – | Selectivity ratio (Acinetobacter baumannii [6]): 128; MIC95 (Acinetobacter baumannii [4]): 6.25 µM
13 | CCCCc1ccc(S(=O)(=O)Nc2ccc(NC(=O)Nc3ccc(NS(=O)(=O)c4ccc(CCCC)cc4)c(C(=O)O)c3)cc2C(=O)O)cc1 | – | – | 2.21 (≈ 1.6 µg/mL) | – | – | logD [13]: 2.3
14 | O=C(O)c1cc(CN[C@H]2C[C@@H](NCc3ccc(NS(=O)(=O)c4cnn(-c5ccc(Cl)cc5)c4)c(C(=O)O)c3)C2)ccc1NS(=O)(=O)c1cnn(-c2ccc(Cl)cc2)c1 | 1290 | > 42000 | 0.196 (≈ 0.17 µg/mL) | – | – | Selectivity ratio (Acinetobacter baumannii [6]): 16; MIC95 (Acinetobacter baumannii [4]): 3.12 µM
15 | O=C(O)c1cc(CN2CC(Oc3ccc(NS(=O)(=O)N4CCOC(c5ccc(F)cc5)C4)c(C(=O)O)c3)C2)ccc1NS(=O)(=O)CCCCc1ccc(Cl)cc1 (single isomer, unassigned) | – | – | – | – | – | MIC (Acinetobacter baumannii [7]): 3.12 µM; MIC (Acinetobacter baumannii [8]): 12.5 µM; MIC (Acinetobacter baumannii [9]): 50 µM; MIC (Acinetobacter baumannii [10]): 0.049 µM (≈ 0.0407 µg/mL)
16 | O=C(O)c1cc(CN2CC(Oc3ccc(NS(=O)(=O)N4CCOC(c5ccc(F)cc5)C4)c(C(=O)O)c3)C2)ccc1NS(=O)(=O)CCCc1ccc(F)cc1 (racemic) | – | – | – | – | – | MIC (Acinetobacter baumannii [7]): 6.25 µM; MIC (Acinetobacter baumannii [8]): 12.5 µM; MIC (Acinetobacter baumannii [9]): > 100 µM; MIC (Acinetobacter baumannii [10]): 0.098 µM (≈ 0.0785 µg/mL)
17 | O=C(CCCOc1ccc(NS(=O)(=O)c2ccc(-c3ccc(C(F)(F)F)cc3)cc2)c(C(=O)O)c1)Nc1ccc(NS(=O)(=O)c2ccc(-c3ccc(C(F)(F)F)cc3)cc2)c(C(=O)O)c1 | < 10 | 11200 | 0.391 (≈ 0.368 µg/mL) | 3.12 | 8 | AUC(0-inf) [14]: 3780 µM·h; Cmax [15]: 370 µM; AUC(0-inf) [16]: 885 µM·h; Cmax [17]: 543 µM
18 | O=C(CCCOc1ccc(NS(=O)(=O)c2ccc(-c3ccccc3)s2)c(C(=O)O)c1)Nc1ccc(NS(=O)(=O)c2ccc(-c3ccccc3)s2)c(C(=O)O)c1 | < 10 | > 42000 | 0.012 (≈ 0.00982 µg/mL) | 3.12 | 260 | –
19 | Cn1nc(-c2ccccc2)cc1S(=O)(=O)Nc1ccc(NC(=O)CCCOc2ccc(NS(=O)(=O)c3cc(-c4ccccc4)nn3C)c(C(=O)O)c2)cc1C(=O)O | 3.8 | 700 | 0.024 (≈ 0.0195 µg/mL) | 1.11 | 46 | –
20 | O=C(O)c1cc(CN2CC(Oc3ccc(NS(=O)(=O)c4cnn(-c5ccc(F)cc5)c4)c(C(=O)O)c3)C2)ccc1NS(=O)(=O)CCCCc1ccc(Cl)cc1 | – | – | – | – | – | MIC (Acinetobacter baumannii [7]): 3.12 µM; MIC (Acinetobacter baumannii [8]): 29.7 µM; MIC (Acinetobacter baumannii [9]): 70.7 µM; MIC (Acinetobacter baumannii [10]): 0.078 µM (≈ 0.0634 µg/mL)
21 | CCCCc1ccc(S(=O)(=O)Nc2ccc(NC(=O)CCC(=O)Nc3ccc(NS(=O)(=O)c4ccc(CCCC)nc4)c(C(=O)O)c3)cc2C(=O)O)cc1 | 64 | – | 0.196 (≈ 0.153 µg/mL) | 12.5 | 64 | –
22 | CCCCc1ccc(S(=O)(=O)Nc2ccc(NC(=O)CCNC(=O)c3ccc(NS(=O)(=O)c4ccc(CCCC)cc4)c(C(=O)O)c3)cc2C(=O)O)cc1 | 83 | – | 0.112 (≈ 0.0872 µg/mL) | 11.3 | 101 | –
23 | O=C(CCCOc1ccc(NS(=O)(=O)c2ccc(Oc3ccc(Cl)cc3)nc2)c(C(=O)O)c1)Nc1ccc(NS(=O)(=O)c2ccc(Oc3ccc(Cl)cc3)nc2)c(C(=O)O)c1 | 29 | 36300 | 0.012 (≈ 0.0109 µg/mL) | 3.12 | 260 | –
24 | CCCCc1ccc(S(=O)(=O)Nc2ccc(NC(=O)[C@H]3C[C@@H]3C(=O)Nc3ccc(NS(=O)(=O)c4ccc(CCCC)cc4)c(C(=O)O)c3)cc2C(=O)O)cc1 (racemic) | > 22100 | – | 1.1 (≈ 0.874 µg/mL) | > 200 | >181 | –
25 | O=C(CCCOc1ccc(NS(=O)(=O)c2cnn(-c3ccc(Cl)cc3)c2)c(C(=O)O)c1)Nc1ccc(NS(=O)(=O)c2cnn(-c3ccc(Cl)cc3)c2)c(C(=O)O)c1 | < 10 | 22900 | 0.062 (≈ 0.053 µg/mL) | 1.56 | 25 | –
